# Earlier results, collected in US6977083B1, “Bioadhesive tablet containing testosterone/testosterone ester mixtures and method for producing a predetermined testosterone time-release profile with same” (Jenapharm GmbH & Co. KG, priority 1998, dated 2005).
# Conditions: after oral or parenteral administration
smiles,measurement,value
C[C@]12CC[C@H]3[C@@H](CCC4=CC(=O)CC[C@@]43C)[C@@H]1CC[C@@H]2O [testosterone],plasma half-life,about 10 minutes
